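48-hour exposure; five concentrations; linearly interpolated endpoints. GI50 = concentration required for 50% inhibition of growth.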 The source made the active and inactive calls. Cut-off read from the data, not from the text of the source: active = GI50 up to about 1.1 µM and inactive = higher.
Assays:
Assay in all cases: NCI tumour cell line growth inhibition, 48 h
Hs-578T = tested on: Hs-578T
MCF7 = tested on: MCF7
HCT-116 = tested on: HCT-116
UACC-257 = tested on: UACC-257
HCC 2998 = tested on: HCC 2998
SNB-19 = tested on: SNB-19
MDA-N = tested on: MDA-N
SK-MEL-28 = tested on: SK-MEL-28
UACC-62 = tested on: UACC-62
A549 = tested on: A549
HOP-92 = tested on: HOP-92
OVCAR-5 = tested on: OVCAR-5
OVCAR-3 = tested on: OVCAR-3
HL-60 = tested on: HL-60
K562 = tested on: K562
SR = tested on: SR
BT-549 = tested on: BT-549
DU-145 = tested on: DU-145
SF-539 = tested on: SF-539
SF-295 = tested on: SF-295
OVCAR-8 = tested on: OVCAR-8
KM12 = tested on: KM12
Malme-3M = tested on: Malme-3M
IGROV-1 = tested on: IGROV-1
OVCAR-4 = tested on: OVCAR-4
HT-29 = tested on: HT-29
NCI-H522 = tested on: NCI-H522
786-0 = tested on: 786-0
MOLT-4 = tested on: MOLT-4
U-251 = tested on: U-251
SF-268 = tested on: SF-268
LOX IMVI = tested on: LOX IMVI
CCRF-CEM = tested on: CCRF-CEM
MDA-MB-231 = tested on: MDA-MB-231
SW-620 = tested on: SW-620
M14 = tested on: M14
NCI-H23 = tested on: NCI-H23
TK-10 = tested on: TK-10
T47D = tested on: T47D
EKVX = tested on: EKVX
HCT-15 = tested on: HCT-15
NCI/ADR-RES = tested on: NCI/ADR-RES
SK-MEL-2 = tested on: SK-MEL-2
COLO 205 = tested on: COLO 205
ACHN = tested on: ACHN
SK-OV-3 = tested on: SK-OV-3
SNB-75 = tested on: SNB-75
MDA-MB-435 = tested on: MDA-MB-435
RPMI-8226 = tested on: RPMI-8226
PC-3 = tested on: PC-3
SN12C = tested on: SN12C
NCI-H226 = tested on: NCI-H226
CAKI-1 = tested on: CAKI-1
SK-MEL-5 = tested on: SK-MEL-5
UO-31 = tested on: UO-31
HOP-62 = tested on: HOP-62
NCI-H460 = tested on: NCI-H460
RXF 393 = tested on: RXF 393

Q: Which results are given for `O=c1[nH]c2nc3ccccc3c(=O)n2/c1=C/c1ccco1`?
A: GI50 (Hs-578T): > 100 µM (inactive); GI50 (MCF7): 4.2 µM (inactive); GI50 (HCT-116): > 100 µM (inactive); GI50 (UACC-257): > 100 µM (inactive); GI50 (HCC 2998): > 100 µM (inactive); GI50 (SNB-19): > 100 µM (inactive); GI50 (MDA-N): > 100 µM (inactive); GI50 (SK-MEL-28): > 100 µM (inactive); GI50 (UACC-62): > 100 µM (inactive); GI50 (A549): > 100 µM (inactive); GI50 (HOP-92): > 100 µM (inactive); GI50 (OVCAR-5): > 100 µM (inactive); GI50 (OVCAR-3): > 100 µM (inactive); GI50 (HL-60): > 100 µM (inactive); GI50 (K562): > 100 µM (inactive); GI50 (SR): > 100 µM (inactive); GI50 (BT-549): > 100 µM (inactive); GI50 (DU-145): > 100 µM (inactive); GI50 (SF-539): > 100 µM (inactive); GI50 (SF-295): > 100 µM (inactive); GI50 (OVCAR-8): > 100 µM (inactive); GI50 (KM12): > 100 µM (inactive); GI50 (Malme-3M): > 100 µM (inactive); GI50 (IGROV-1): > 100 µM (inactive); GI50 (OVCAR-4): > 100 µM (inactive); GI50 (HT-29): > 100 µM (inactive); GI50 (NCI-H522): > 100 µM (inactive); GI50 (786-0): > 100 µM (inactive); GI50 (MOLT-4): > 100 µM (inactive); GI50 (U-251): > 100 µM (inactive); GI50 (SF-268): > 100 µM (inactive); GI50 (LOX IMVI): > 100 µM (inactive); GI50 (CCRF-CEM): > 100 µM (inactive); GI50 (MDA-MB-231): > 100 µM (inactive); GI50 (SW-620): > 100 µM (inactive); GI50 (M14): > 100 µM (inactive); GI50 (NCI-H23): > 100 µM (inactive); GI50 (TK-10): > 100 µM (inactive); GI50 (T47D): 23.4 µM (inactive); GI50 (EKVX): > 100 µM (inactive); GI50 (HCT-15): > 100 µM; GI50 (NCI/ADR-RES): > 100 µM (inactive); GI50 (SK-MEL-2): > 100 µM (inactive); GI50 (COLO 205): > 100 µM (inactive); GI50 (ACHN): > 100 µM (inactive); GI50 (SK-OV-3): > 100 µM (inactive); GI50 (SNB-75): > 100 µM (inactive); GI50 (MDA-MB-435): > 100 µM (inactive); GI50 (RPMI-8226): > 100 µM (inactive); GI50 (PC-3): > 100 µM (inactive); GI50 (SN12C): > 100 µM (inactive); GI50 (NCI-H226): > 100 µM (inactive); GI50 (CAKI-1): > 100 µM (inactive); GI50 (SK-MEL-5): > 100 µM (inactive); GI50 (UO-31): > 100 µM (inactive); GI50 (HOP-62): > 100 µM (inactive)

Q: Which results are given for `COC(=O)C(C)(Cc1ccc2c(c1)nnn2C(C)=O)NC(C)=O` (stereo not given)?
A: GI50 (Hs-578T): > 100 µM (inactive); GI50 (MCF7): > 100 µM (inactive); GI50 (HCT-116): > 100 µM (inactive); GI50 (UACC-257): > 100 µM (inactive); GI50 (HCC 2998): > 100 µM (inactive); GI50 (SNB-19): > 100 µM (inactive); GI50 (MDA-N): > 100 µM (inactive); GI50 (SK-MEL-28): > 100 µM (inactive); GI50 (UACC-62): > 100 µM (inactive); GI50 (A549): > 100 µM (inactive); GI50 (HOP-92): > 100 µM (inactive); GI50 (OVCAR-5): > 100 µM (inactive); GI50 (OVCAR-3): > 100 µM (inactive); GI50 (HL-60): > 100 µM (inactive); GI50 (K562): > 100 µM (inactive); GI50 (SR): > 100 µM (inactive); GI50 (BT-549): > 100 µM (inactive); GI50 (DU-145): > 100 µM (inactive); GI50 (SF-295): > 100 µM (inactive); GI50 (OVCAR-8): > 100 µM (inactive); GI50 (KM12): > 100 µM (inactive); GI50 (Malme-3M): > 100 µM (inactive); GI50 (IGROV-1): > 100 µM (inactive); GI50 (OVCAR-4): > 100 µM (inactive); GI50 (HT-29): > 100 µM (inactive); GI50 (NCI-H522): > 100 µM (inactive); GI50 (786-0): > 100 µM (inactive); GI50 (MOLT-4): > 100 µM (inactive); GI50 (SF-268): > 100 µM (inactive); GI50 (LOX IMVI): > 100 µM (inactive); GI50 (CCRF-CEM): > 100 µM (inactive); GI50 (MDA-MB-231): > 100 µM (inactive); GI50 (SW-620): > 100 µM (inactive); GI50 (M14): > 100 µM (inactive); GI50 (NCI-H23): > 100 µM (inactive); GI50 (TK-10): > 100 µM (inactive); GI50 (T47D): > 100 µM (inactive); GI50 (EKVX): > 100 µM (inactive); GI50 (HCT-15): > 100 µM; GI50 (NCI/ADR-RES): > 100 µM (inactive); GI50 (SK-MEL-2): > 100 µM (inactive); GI50 (COLO 205): > 100 µM (inactive); GI50 (ACHN): > 100 µM (inactive); GI50 (NCI-H460): > 100 µM (inactive); GI50 (SK-OV-3): > 100 µM (inactive); GI50 (SNB-75): > 100 µM (inactive); GI50 (MDA-MB-435): > 100 µM (inactive); GI50 (RPMI-8226): > 100 µM (inactive); GI50 (PC-3): > 100 µM (inactive); GI50 (NCI-H226): > 100 µM (inactive); GI50 (CAKI-1): > 100 µM (inactive); GI50 (SK-MEL-5): > 100 µM (inactive); GI50 (RXF 393): > 100 µM (inactive); GI50 (UO-31): > 100 µM (inactive)
